Data on 12 molecules can be found in ChEMBL document CHEMBL1135186, “Novel diphenylalkyl piperazine derivatives with dual calcium antagonistic and antioxidative activities” (Bioorg Med Chem Lett, 2002).

The species named for assay [1] is Canis familiaris. The experiment in a line: Inhibitory activity against KCl induced contractile response in isolated canine renal artery was determined expressed as vasodilation effect. The format is functional, Canis lupus familiaris.
Assay [2] is filed under the species Canis familiaris. The experiment in a line: Concentration of the test compound required to inhibit the auto oxidative lipid peroxidations in canine brain homogenates by 50% was determined. The format is functional. The conditions noted are these: Canis lupus familiaris.
Another assay is filed under the species Rattus norvegicus. The experiment in a line: PD2 value was calculated as -log value of the concentration of the test compound to inhibit 60 mM KCl-induced contractions to 50% expressed as calcium antagonistic activity. The format is functional.
The species named for assay [3] is Canis familiaris. In words: Inhibitory activity against KCl induced contractile response in isolated canine basilar artery was determined expressed as vasodilation effect. The format is functional, Canis lupus familiaris.
The species named for assay [4] is Canis familiaris. In words: Inhibitory activity against KCl induced contractile response in isolated canine mesenteric artery was determined expressed as vasodilation effect. The format is functional, Canis lupus familiaris.
For assay [5], the species on record is Canis familiaris. The experiment in a line: Inhibitory activity against KCl induced contractile response in isolated canine coronary artery was determined expressed as vasodilation effect. The assay is classed as functional, Canis lupus familiaris.

Regarding `OC(CSc1ccccc1)CN1CCN(CCCC(c2ccc(F)cc2)c2ccc(F)cc2)CC1` (centres undefined), the PD2 in the assay filed under Canis familiaris [1] was 5.73; in the assay listed under Rattus norvegicus it was 6.79; in the assay listed under Canis familiaris [3], 7; in the assay filed under Canis familiaris [4], 5.8; in the assay listed under Canis familiaris [5], 6.38. In the assay filed under Canis familiaris [2], this molecule gave an IC50 of 15 µM.
In the assay listed under Canis familiaris [2], `CC(=O)N(CC(O)CN1CCN(CCCC(c2ccc(F)cc2)c2ccc(F)cc2)CC1)c1ccccc1` (centres undefined) yielded an IC50 of 390 µM. Besides, the PD2 in the assay listed under Rattus norvegicus is given as 5.98.
Consider `COC(CNc1ccccc1)CN1CCN(CCCC(c2ccc(F)cc2)c2ccc(F)cc2)CC1` (centres undefined), for which, in the assay filed under Canis familiaris [2], 15 µM corresponded to half-maximal inhibition (IC50).
Take `OC(CNc1ccccc1)CN1CCN(CCCC(c2ccc(F)cc2)c2ccc(F)cc2)CC1` (centres undefined): the PD2 in the assay listed under Canis familiaris [1] is reported as 6.27; in the assay listed under Rattus norvegicus, 6.7; in the assay filed under Canis familiaris [3], 6.76; in the assay filed under Canis familiaris [4], 6.1; in the assay filed under Canis familiaris [5], 6.32. In addition, the IC50 in the assay listed under Canis familiaris [2] came to 6.5 µM.
`OC(CSCc1ccccc1)CN1CCN(CCCC(c2ccc(F)cc2)c2ccc(F)cc2)CC1` (centres undefined) displayed an IC50 in the assay listed under Canis familiaris [2] of 28 µM. Further, the PD2 in the assay listed under Rattus norvegicus is 6.93.
For the molecule `CC(=O)OC(CSc1ccccc1)CN1CCN(CCCC(c2ccc(F)cc2)c2ccc(F)cc2)CC1` (centres undefined), in the assay filed under Canis familiaris [2], the IC50 was determined as 20 µM. The PD2 in the assay listed under Rattus norvegicus was 6.55.
The like results for `CN(CC(O)CN1CCN(CCCC(c2ccc(F)cc2)c2ccc(F)cc2)CC1)c1ccccc1` (centres undefined) were, in that order, 19 µM and 5.83.
On the same counts, the results for `CC(=O)OC(CNc1ccccc1)CN1CCN(CCCC(c2ccc(F)cc2)c2ccc(F)cc2)CC1` (centres undefined) are 13 µM and 6.38.
On the same counts, the results for `OC(CNCc1ccccc1)CN1CCN(CCCC(c2ccc(F)cc2)c2ccc(F)cc2)CC1` (centres undefined) are 6.9 µM and 5.85.
Molecule `COC(CSc1ccccc1)CN1CCN(CCCC(c2ccc(F)cc2)c2ccc(F)cc2)CC1` (centres undefined) registered an IC50 in the assay listed under Canis familiaris [2] of 20 µM. Besides, the PD2 in the assay filed under Rattus norvegicus was 6.69.
As for `Cc1c(C)c2c(c(C)c1O)CC[C@@](C)(CCC[C@H](C)CCC[C@H](C)CCCC(C)C)O2` [ALPHA-TOCOPHEROL], in the assay filed under Canis familiaris [2], inhibition was half-maximal at 1.5 µM (IC50).
Take `Fc1ccc(C(c2ccc(F)cc2)N2CCN(C/C=C/c3ccccc3)CC2)cc1` [FLUNARIZINE]: the PD2 in the assay listed under Rattus norvegicus is reported as 5.98.

For orientation: IC50 means the midpoint of a concentration-inhibition curve. A low value points to higher potency.
